Reference: patent US20080031866A1, “METHOD FOR MODULATING THE PHARMACOKINETICS AND METABOLISM OF A THERAPEUTIC AGENT” (priority 2006, published 2008)

Key:
[1] = Oral gavage pharmacokinetics, jugular and portal vein sampling, first pass metabolism; format: in vivo, rat; details: for AUC: po, 75 mg/kg; for AUC / concentration at 0 h / concentration at 0.08 h / concentration at 0.25 h / concentration at 0.33 h / concentration at 0.5 h / concentration at 0.67 h / concentration at 1 h / concentration at 1.25 h / concentration at 1.5 h / concentration at 2 h / concentration at 3 h / concentration at 4 h / concentration at 6 h / concentration at 12 h / concentration at 24 h / Cmax: rats N=4; for Cmax: read-out: Cmax average ± standard deviation
Protocol: (§1) Two separate IV studies were carried out using two separate lots of animals. IV-A was run on the same lot of animals as the oral gavage study and IV-B was run on the same lot of animals as the intraduodenal and intra-colonic studies.
For the oral gavage dosing, Compound 1 was prepared in neat PEG-400. For the intraduodenal and intracolonic dosing solutions, Compound 1 was added to neat Tween 80, the mixture was sonicated for thirty minutes at 45° C. until Compound 1 was completely dissolved and then deionized (DI) water was added to form a solution consisting of 20% Tween 80 and 80% DI water by weight.
(§2) For the IV and oral gavage dosing (sampling at jugular and portal vein), young adult male Sprague Dawley rats weighing 250-400 g were purchased from Hilltop Lab Animals Inc. All rat experiments were conducted under approved animal protocols. The rats for the oral gavage dosing were catheterized at Hilltop Lab Animals Inc, had two chronic catheters for sampling: jugular and portal, were housed in cages of Culex™ Automated Blood Sampler (ABS) and blood samples were collected simultaneously via both cannula and were controlled by the Culex™ ABS control software.
(§3) A quantitative method for determining the amount of (6,7-dimethoxy-2,4-dihydro-indeno[1,2-c]pyrazol-3-yl)-(3-fluoro-phenyl)-amine Compound 1 and its major metabolites, glucuronide A (Cpd 1-GluA) and glucuronide B (Cpd 1-GluB) (see Scheme A) in rat plasma was developed using phenacetin as an internal standard. [drawing 1]
(§4) The two glucuronide conjugates were prepared and purified to permit accurate quantification of the levels of intact parent Compound 1 versus Cpd 1-GluA and Cpd 1-GluB. Each standard curve for Compound 1, Cpd 1-GluA, and Cpd 1-GluB generated from rat plasma included ten concentration levels. […] The quantitative procedure for each sample included: sample preparation, HPLC separation and mass spectrometry detection.
(§5) The rat plasma was prepared using protein precipitation techniques. Reference standards and quality control samples in rat plasma for Compound 1 were transferred to a 96 deep-well plate. The precipitation solution contained 100 ng/ml of internal standard in acetonitrile. 300 μl of precipitation solution were added to 100 μl of each standard, quality control and plasma sample. Samples were vortexed for 10 mins, then centrifuged at 4500 RPM for 10 mins. 10 μl of each sample were injected for LC/MS/MS analysis.
(§6) The HPLC column chosen for the bioanalysis was purchased from Thermo Electron (Hypersil BetaBasic C18, 5 cm×2.1 mm). The eluting solvents were composed of Solvent A: 0.1% formic acid in H2O and Solvent B: 0.1% formic acid in acetonitrile. A step gradient was used and flow rate was 300 μl/min. The total run time was 3.2 mins. Solvent B was increased from 35% at 0 min to 75% at 2.1 mins and decreased back to 35% at 2.2 mins. The retention times for Compound 1, phenacetin, Cpd 1-GluA and Cpd 1-GluB were 1.1 min, 0.9 min, 1.3 min, and 1.6 min, respectively.
API3000 with a Turbo Ionspray interface from Applied Biosystems was used for the detection of Compound 1, the internal standard and major metabolites. Electrospray ionization was performed in the positive ion mode heated nebulizer with a temperature of 300° C. LC/MS/MS chromatograms were acquired in MRM (multiple reaction mode). The MRM transitions for Compound 1, the internal standard, Cpd 1-GluA and Cpd 1-GluB were from 326.3 to 190.6, 181.1 to 110.3, 502.2 to 368.3 and 502.2 to 326.4, respectively. […]

[2] = IV pharmacokinetics of Compound 1 and its glucuronides in rats; format: in vivo, rat; details: Sprague Dawley, rat, plasma, Compound 1 2 mg/kg IV
Protocol: as §1
For the IV dosing solutions (IV), Compound 1 was prepared by addition to DI water containing 20% hydroxypropyl β-cyclodextran by weight.
as §2, §3, §4, §5, §6
API3000 with a Turbo Ionspray interface from Applied Biosystems was used for the detection of Compound 1, the internal standard and major metabolites. Electrospray ionization was performed in the positive ion mode heated nebulizer with a temperature of 300° C. LC/MS/MS chromatograms were acquired in MRM (multiple reaction mode). The MRM transitions for Compound 1, the internal standard, Cpd 1-GluA and Cpd 1-GluB were from 326.3 to 190.6, 181.1 to 110.3, 502.2 to 368.3 and 502.2 to 326.4, respectively.
Pharmacokinetic analysis of the plasma concentration data was performed to determine the maximum plasma concentration (Cmax) for the oral dose, and the concentration at zero time (C0; Compound 1 only) by the extrapolation of drug concentrations back to the time of i.v. dosing, the time to maximum plasma concentration (Tmax) following the oral dose, area under the plasma concentration vs. time curve (AUC), terminal half-life (t1/2), plasma clearance (CL/F; Compound 1 only), and volume of distribution at steady state (Vdss; Compound 1 only) for the i.v. dose, using the WinNonlin (Version 3.1, Pharsight, Palo Alto, Calif.) validated computer program.

[3] = male, Sprague Dawley, rat, plasma (jugular vein sample), Compound 1 75 mg/kg oral gavage, jugular sample
[4] = male, Sprague Dawley, rat, plasma (portal vein sample), Compound 1 75 mg/kg oral gavage, portal sample
[5] = male, Sprague Dawley, rat, portal vein plasma, Compound 1 75 mg/kg oral gavage, portal sample

Question: For `COc1cc2c(cc1OC)-c1nn(C3OC(C(=O)O)C(O)C(O)C3O)c(Nc3cccc(F)c3)c1C2` (stereo in doubt) [Cpd 1-GluB], which “Ratio of metabolite to Compound 1” value ([1]; jugular vein, oral gavage) is on record?
Answer: 1

Question: What about the AUC ([1]; male, Sprague Dawley, rat, plasma (jugular vein sample), Compound 1 75 mg/kg oral gavage, jugular sample, read-out: AUC average ± standard deviation 0 to 24 hours) of the same compound?
Answer: 1710 ng·h/mL

Question: What about the AUC ([1]; male, Sprague Dawley, rat, plasma (jugular vein sample), Compound 1 75 mg/kg oral gavage, jugular sample, read-out: AUC average ± standard deviation 0 to infinite hours) of the same compound?
Answer: 2180 ng·h/mL

Question: And the concentration at 0 h [1, 3]?
Answer: 0 ng/mL

Question: And the concentration at 0.08 h [1, 3]?
Answer: 37.8 ng/mL

Question: What about the concentration at 0.25 h [1, 3] of the same compound?
Answer: 169 ng/mL

Question: And the concentration at 0.33 h [1, 3]?
Answer: 233 ng/mL

Question: What about the concentration at 0.5 h [1, 3] of the same compound?
Answer: 223 ng/mL

Question: And the concentration at 0.67 h [1, 3]?
Answer: 244 ng/mL

Question: What about the concentration at 1 h [1, 3] of the same compound?
Answer: 230 ng/mL

Question: And the concentration at 1.25 h [1, 3]?
Answer: 178 ng/mL

Question: And the concentration at 1.5 h [1, 3]?
Answer: 169 ng/mL

Question: What about the concentration at 2 h [1, 3] of the same compound?
Answer: 141 ng/mL

Question: What about the concentration at 3 h [1, 3] of the same compound?
Answer: 90 ng/mL

Question: And the concentration at 4 h [1, 3]?
Answer: 51.4 ng/mL

Question: And the concentration at 6 h [1, 3]?
Answer: 71.3 ng/mL

Question: What about the concentration at 12 h [1, 3] of the same compound?
Answer: 86.5 ng/mL

Question: And the concentration at 24 h [1, 3]?
Answer: 29 ng/mL

Question: What about the Cmax [1, 3] of the same compound?
Answer: 268 ± 52 ng/mL

Question: What about the concentration at 0.67 h [1, 4] of the same compound?
Answer: 290 ng/mL

Question: And the concentration at 1 h [1, 4]?
Answer: 164 ng/mL

Question: What about the concentration at 1.25 h [1, 4] of the same compound?
Answer: 183 ng/mL

Question: And the concentration at 1.5 h [1, 4]?
Answer: 151 ng/mL

Question: And the concentration at 2 h [1, 4]?
Answer: 142 ng/mL

Question: And the concentration at 3 h [1, 4]?
Answer: 105 ng/mL

Question: And the concentration at 4 h [1, 4]?
Answer: 79.5 ng/mL

Question: What about the concentration at 6 h [1, 4] of the same compound?
Answer: 120 ng/mL

Question: And the concentration at 12 h [1, 4]?
Answer: 87.2 ng/mL

Question: And the Tmax ([1]; male, Sprague Dawley, rat, plasma, rats, Compound 1 75 mg/kg oral gavage)?
Answer: 30 min

Question: And the AUC ([1]; male, Sprague Dawley, rat, portal vein plasma, Compound 1 75 mg/kg oral gavage, portal sample, read-out: AUC average ± standard deviation 0 to 24 hours)?
Answer: 1960 ng·h/mL

Question: What about the AUC ([1]; male, Sprague Dawley, rat, portal vein plasma, Compound 1 75 mg/kg oral gavage, portal sample, read-out: AUC average ± standard deviation 0 to infinite hours) of the same compound?
Answer: 2490 ng·h/mL

Question: What about the concentration at 0 h [1, 5] of the same compound?
Answer: 0 ng/mL

Question: And the concentration at 0.08 h [1, 5]?
Answer: 82.8 ng/mL

Question: And the concentration at 0.25 h [1, 5]?
Answer: 215 ng/mL

Question: And the concentration at 0.33 h [1, 5]?
Answer: 263 ng/mL

Question: What about the concentration at 0.5 h [1, 5] of the same compound?
Answer: 192 ng/mL

Question: And the concentration at 24 h [1, 5]?
Answer: 39.9 ng/mL

Question: And the Cmax [1, 5]?
Answer: 324 ± 129 ng/mL

Question: What about the “Mean ratio of metabolite to Compound 1” value ([1]; portal system, oral gavage) of the same compound?
Answer: 0.2

Question: What about the AUC ([2]; male rats N=4, read-out: AUC average ± standard deviation) of the same compound?
Answer: 103 ± 47 ng·h/mL

Question: And the Cmax ([2]; male rats N=4, read-out: Cmax average ± standard deviation)?
Answer: 28 ± 3 ng/mL

Question: And the concentration at 0 h ([2]; male rats N=4, retro orbital sinus, 0 hrs)?
Answer: 0 ng/mL

Question: And the concentration at 0.08 h ([2]; male rats N=4, retro orbital sinus, 0.08 hrs)?
Answer: 21.2 ng/mL

Question: What about the concentration at 0.33 h ([2]; male rats N=4, retro orbital sinus, 0.33 hrs) of the same compound?
Answer: 28.4 ng/mL

Question: And the concentration at 1 h ([2]; male rats N=4, retro orbital sinus, 1 hr)?
Answer: 17.8 ng/mL

Question: And the concentration at 2 h ([2]; male rats N=4, retro orbital sinus, 2 hrs)?
Answer: 5.5 ng/mL

Question: And the concentration at 4 h ([2]; male rats N=4, retro orbital sinus, 4 hrs)?
Answer: 0 ng/mL

Question: What about the concentration at 8 h ([2]; male rats N=4, retro orbital sinus, 8 hrs) of the same compound?
Answer: 0 ng/mL

Question: And the concentration at 24 h ([2]; male rats N=4, retro orbital sinus, 24 hrs)?
Answer: 0 ng/mL

Question: And the Tmax ([2]; male rats)?
Answer: 18 min
